Experimental data from patent US9833466B2, “Treatment of leukemia with histone deacetylase inhibitors” (Acetylon Pharmaceuticals Inc., priority 2014, dated 2017).
“Also recorded” adds a separate entry of the source.

System: GATA2
Assay: GATA2 expression in MV4-11 AML cell line
Type: cell-based
Settings: 48 h and 72 h
Procedure: FIG. 16. […] (A-B) MV4-11 cells were plated at 2×10^5 cells/ml at indicated doses for 48 h and 72 h. RNA was prepared and analyzed for GATA2 and GAPDH as internal control.

For `Nc1ccc(-c2cccs2)cc1NC(=O)c1ccc2c(c1)cc(C1CC1)n2CCN1CCOCC1` [Compound E, N-(2-amino-5-(thiophen-2-yl)phenyl)-2-cyclopropyl-1-(2-morpholinoethyl)-1H-indole-5-carboxamide], the GATA2 expression (combination of azacitidine and Compound E) was “further induced GATA2 expression; also recorded: synergistically induce GATA2 expression” and the GATA2 level (single agent at 1 uM) was “induced GATA2 level”.
